Drawing on BindingDB's records for doi:10.1074/jbc.M805358200 (University of Pittsburgh, 2008), this text covers IC50 for two compounds.

Structures are written as SMILES. Where only a bound is given, the exact number is not on record here.

Common to all, as to experiment: IMAP-Based HTS FP Assay/ TR-FRET Assay
On the technique in general: Time-resolved FRET reads energy transfer from a long-lived donor to a nearby acceptor.

Assay [1] addresses Serine/threonine-protein kinase PLK1 (Homo sapiens, UniProt P53350). From the text: (§1) An IMAP-based PKD HTS FR assay was used for primary HTS of the PMLSC library to identify hit compounds and subsequent secondary hit confirmation studies.
In assay [2] the target is Cyclin-dependent kinase 7 (Homo sapiens, UniProt P50613).
Excerpt: as §1

In assay [3] the target is RAC-alpha serine/threonine-protein kinase (Homo sapiens, UniProt P31749).
Excerpt: as §1

Assay [4] addresses T1, Serine/threonine-protein kinase D1 (Homo sapiens, UniProt Q15139).
T1 sequence (Q15139 whole entry): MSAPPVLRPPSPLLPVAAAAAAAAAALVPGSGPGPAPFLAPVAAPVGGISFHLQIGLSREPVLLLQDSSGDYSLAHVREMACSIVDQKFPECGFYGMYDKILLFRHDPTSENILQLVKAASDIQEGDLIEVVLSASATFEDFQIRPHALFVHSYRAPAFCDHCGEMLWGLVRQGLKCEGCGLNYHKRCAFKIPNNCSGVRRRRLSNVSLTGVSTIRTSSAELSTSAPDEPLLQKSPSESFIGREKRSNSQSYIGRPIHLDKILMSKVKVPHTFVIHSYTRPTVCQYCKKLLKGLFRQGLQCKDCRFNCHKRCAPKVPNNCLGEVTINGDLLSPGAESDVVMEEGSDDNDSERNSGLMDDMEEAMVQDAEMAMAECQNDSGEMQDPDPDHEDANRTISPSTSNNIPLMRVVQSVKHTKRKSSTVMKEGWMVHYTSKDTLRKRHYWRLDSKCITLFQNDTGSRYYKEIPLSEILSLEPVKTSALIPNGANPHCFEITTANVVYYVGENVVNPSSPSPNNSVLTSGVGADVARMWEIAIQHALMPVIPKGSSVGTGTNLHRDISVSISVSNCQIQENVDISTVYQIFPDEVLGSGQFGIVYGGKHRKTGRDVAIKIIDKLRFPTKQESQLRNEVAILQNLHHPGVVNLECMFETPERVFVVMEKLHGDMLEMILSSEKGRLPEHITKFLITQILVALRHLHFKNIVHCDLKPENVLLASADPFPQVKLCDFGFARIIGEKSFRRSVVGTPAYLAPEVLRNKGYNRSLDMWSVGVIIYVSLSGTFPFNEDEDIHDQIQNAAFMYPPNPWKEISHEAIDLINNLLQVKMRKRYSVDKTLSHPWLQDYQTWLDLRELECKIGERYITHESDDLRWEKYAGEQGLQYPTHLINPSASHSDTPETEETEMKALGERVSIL
Excerpt: as §1

Sequence of Cyclin-dependent kinase 7 (P50613 whole entry): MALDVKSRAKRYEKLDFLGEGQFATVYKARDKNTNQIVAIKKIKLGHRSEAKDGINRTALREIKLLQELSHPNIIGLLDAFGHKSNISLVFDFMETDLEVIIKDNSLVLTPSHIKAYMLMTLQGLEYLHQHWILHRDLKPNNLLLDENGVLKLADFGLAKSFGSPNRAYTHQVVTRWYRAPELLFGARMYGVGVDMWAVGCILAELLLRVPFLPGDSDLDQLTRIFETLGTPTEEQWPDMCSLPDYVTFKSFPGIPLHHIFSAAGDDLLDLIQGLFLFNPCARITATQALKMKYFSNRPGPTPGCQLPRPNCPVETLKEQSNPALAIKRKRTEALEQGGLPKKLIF
Sequence of Serine/threonine-protein kinase PLK1 (P53350 whole entry): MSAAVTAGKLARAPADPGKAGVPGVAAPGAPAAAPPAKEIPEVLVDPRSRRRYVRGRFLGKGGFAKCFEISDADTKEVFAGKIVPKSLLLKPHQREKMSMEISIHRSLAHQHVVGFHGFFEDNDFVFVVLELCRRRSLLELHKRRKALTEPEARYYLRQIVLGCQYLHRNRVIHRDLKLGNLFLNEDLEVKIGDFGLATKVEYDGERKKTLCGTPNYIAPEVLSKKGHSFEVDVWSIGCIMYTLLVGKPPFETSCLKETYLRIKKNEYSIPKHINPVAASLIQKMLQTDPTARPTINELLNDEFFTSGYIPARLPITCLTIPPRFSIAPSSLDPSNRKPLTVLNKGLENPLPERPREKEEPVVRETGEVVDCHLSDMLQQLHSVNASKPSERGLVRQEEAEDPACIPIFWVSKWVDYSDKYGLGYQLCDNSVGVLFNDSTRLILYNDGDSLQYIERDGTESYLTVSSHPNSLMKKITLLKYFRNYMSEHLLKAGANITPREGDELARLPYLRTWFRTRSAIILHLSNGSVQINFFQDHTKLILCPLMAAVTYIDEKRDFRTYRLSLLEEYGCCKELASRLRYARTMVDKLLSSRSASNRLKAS
Sequence of RAC-alpha serine/threonine-protein kinase (P31749 whole entry): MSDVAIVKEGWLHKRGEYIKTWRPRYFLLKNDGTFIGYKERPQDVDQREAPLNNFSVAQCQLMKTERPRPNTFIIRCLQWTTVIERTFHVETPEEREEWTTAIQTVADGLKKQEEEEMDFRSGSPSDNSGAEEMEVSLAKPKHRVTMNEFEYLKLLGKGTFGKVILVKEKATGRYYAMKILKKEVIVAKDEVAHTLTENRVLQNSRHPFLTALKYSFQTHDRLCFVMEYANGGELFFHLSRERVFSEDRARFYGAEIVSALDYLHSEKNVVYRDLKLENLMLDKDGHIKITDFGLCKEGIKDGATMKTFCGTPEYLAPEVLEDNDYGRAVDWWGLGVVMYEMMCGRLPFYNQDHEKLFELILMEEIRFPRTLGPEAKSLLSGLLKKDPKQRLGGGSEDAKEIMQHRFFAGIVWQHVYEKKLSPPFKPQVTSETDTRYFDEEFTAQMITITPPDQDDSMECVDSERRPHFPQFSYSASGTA

With `O=C1NCCCc2c1oc1ccc(O)cc21` [7-hydroxy-2,3,4,5-tetrahydro-[1]benzofuro[2,3-c]azepin-1-one], the IC50 (as a rule, the concentration that gives 50% inhibition) in assay [1] is 20.3 µM; in assay [2], 15.3 µM; in assay [3] it was over 50 µM; in assay [4], 0.5 µM.
For `O=c1oc2ccc(O)cc2c2c1NCCC2` [CID 797718], the results for the IC50 in assay [1], in assay [2] and in assay [3] were 21.9 µM, 8.4 µM and over 50 µM, respectively.
